Results: patent publication US9833497B2, “Human originated EGF domain proteins and use of the same” (CHENGDU SOURCEBIO LIMITED-LIABILITY COMPANY, priority 2013, dated 2017)

Experiments:
Format in all cases: cell-based
Moraxella catarrhalis = test: MIC against Gram-negative bacteria: Moraxella catarrhalis; conditions: for MIC M. catarrhalis: two-fold serial dilution
Method in brief: (§1)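 First, colonies from LB agar were grown in LB at 37° C, 185 rpm, to McFarland turbidity 0.5, then centrifuged and resuspended in fresh LB. Next, wells received 5×10^5 CFU/mL bacteria plus two-fold serially diluted EGF domain protein (triplicate). Finally, plates were shaken at 37° C and the no-growth concentration taken as MIC.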

E. coli DH5α = test: Antibacterial activity: MIC and growth curve against E. coli DH5α in 96-well plate; conditions: minimal inhibitory concentration against E. coli DH5α; 96-well plate, 5×10^5 CFU/mL, 37° C., judged after 8 h
Method in brief: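 Log-phase bacteria (OD600 ~0.5) resuspended in LB at 5×10^5 CFU/mL, exposed to recombinant protein at 50, 25, 12.5 μg/mL final in triplicate, 37 °C shaking at 175 rpm. OD600 read every 30 min; MIC is lowest concentration showing no growth.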

Aeromonas hydrophila = test: MIC against Gram-negative bacteria: Aeromonas hydrophila; conditions: for MIC A. hydrophila: two-fold serial dilution
Method in brief: as §1

Proteus mirabilis = test: MIC against Gram-negative bacteria: Proteus mirabilis; conditions: for MIC P. mirabilis: two-fold serial dilution
Method in brief: as §1

Enterobacter cloacae = test: MIC against Gram-negative bacteria: Enterobacter cloacae; conditions: for MIC E. cloacae: two-fold serial dilution
Method in brief: as §1

Klebsiella pneumonia = test: MIC against Gram-negative bacteria: Klebsiella pneumonia; conditions: for MIC K. pneumonia: two-fold serial dilution
Method in brief: as §1

Citrobacter diversus = test: MIC against Gram-negative bacteria: Citrobacter diversus; conditions: for MIC C. diversus: two-fold serial dilution
Method in brief: as §1

E. coli BL21 = test: MIC against Gram-negative bacteria: E. coli BL21; conditions: for MIC E. coli BL21: two-fold serial dilution
Method in brief: as §1

Pseudomonas aeruginosa = test: MIC against Gram-negative bacteria: Pseudomonas aeruginosa; conditions: for MIC P. aeruginosa: two-fold serial dilution
Method in brief: as §1

Proteus vulgaris = test: MIC against Gram-negative bacteria: Proteus vulgaris; conditions: for MIC P. vulgaris: two-fold serial dilution
Method in brief: as §1

Serratia marcescens = test: MIC against Gram-negative bacteria: Serratia marcescens; conditions: for MIC S. marcescens: two-fold serial dilution
Method in brief: as §1

[1] = 10 h cultivation at 37° C., 5×10^5 CFU/mL
[2] = Moraxella catarrhalis, 96-well plate, 5×10^5 CFU/mL, 37° C., 10 h
[3] = Aeromonas hydrophila, 96-well plate, 5×10^5 CFU/mL, 37° C., 10 h
[4] = Proteus mirabilis, 96-well plate, 5×10^5 CFU/mL, 37° C., 10 h
[5] = Enterobacter cloacae, 96-well plate, 5×10^5 CFU/mL, 37° C., 10 h
[6] = Klebsiella pneumonia, 96-well plate, 5×10^5 CFU/mL, 37° C., 10 h
[7] = Citrobacter diversus, 96-well plate, 5×10^5 CFU/mL, 37° C., 10 h
[8] = E. coli BL21, 96-well plate, 5×10^5 CFU/mL, 37° C., 10 h
[9] = Pseudomonas aeruginosa, 96-well plate, 5×10^5 CFU/mL, 37° C., 10 h
[10] = Proteus vulgaris, 96-well plate, 5×10^5 CFU/mL, 37° C., 10 h
[11] = Serratia marcescens, 96-well plate, 5×10^5 CFU/mL, 37° C., 10 h

Substance | MIC (E. coli DH5α) | MIC M. catarrhalis (Moraxella catarrhalis; [1]) | MIC A. hydrophila (Aeromonas hydrophila; [1]) | MIC P. mirabilis (Proteus mirabilis; [1]) | MIC E. cloacae (Enterobacter cloacae; [1]) | MIC K. pneumonia (Klebsiella pneumonia; [1]) | MIC C. diversus (Citrobacter diversus; [1]) | MIC E. coli BL21 (E. coli BL21; [1]) | MIC P. aeruginosa (Pseudomonas aeruginosa; [1]) | MIC P. vulgaris (Proteus vulgaris; [1]) | MIC against M. catarrhalis (Moraxella catarrhalis; [2]) | MIC against A. hydrophila (Aeromonas hydrophila; [3]) | MIC against P. mirabilis (Proteus mirabilis; [4]) | MIC against E. cloacae (Enterobacter cloacae; [5]) | MIC against K. pneumonia (Klebsiella pneumonia; [6]) | MIC against C. diversus (Citrobacter diversus; [7]) | MIC against E. coli BL21 (E. coli BL21; [8]) | MIC against P. aeruginosa (Pseudomonas aeruginosa; [9]) | MIC against P. vulgaris (Proteus vulgaris; [10]) | MIC against S. marcescens (Serratia marcescens; [11]) | further results
PRT987 (NVDDCPGHRCLNGGTCVDGVNTYNCQCPPEWTGQFCT; listed as Homo sapiens) | 25 µg/mL |  |  |  |  |  |  |  |  |  |  |  |  |  |  |  |  |  |  |  | MIC (Moraxella catarrhalis; M. catarrhalis, 10 h cultivation at 37° C.): 12.5 µg/mL; MIC (Aeromonas hydrophila; A. hydrophila, 10 h cultivation at 37° C.): 12.5 µg/mL; MIC (Proteus mirabilis; P. mirabilis, 10 h cultivation at 37° C.): 50 µg/mL; MIC (Enterobacter cloacae; E. cloacae, 10 h cultivation at 37° C.): 25 µg/mL; MIC (Klebsiella pneumonia; K. pneumonia, 10 h cultivation at 37° C.): 50 µg/mL; MIC (Citrobacter diversus; C. diversus, 10 h cultivation at 37° C.): 50 µg/mL; MIC (E. coli BL21; E. coli BL21, 10 h cultivation at 37° C.): 12.5 µg/mL; MIC (Pseudomonas aeruginosa; P. aeruginosa, 10 h cultivation at 37° C.): 25 µg/mL; MIC (Proteus vulgaris; P. vulgaris, 10 h cultivation at 37° C.): 12.5 µg/mL; MIC (Serratia marcescens; S. marcescens, 10 h cultivation at 37° C.): 50 µg/mL
PRT1079 (DQCSLNNGGCSHNCSVAPGEGIVCSCPLGMELGPDNHTCQ; listed as Homo sapiens) | 50 µg/mL | 12.5 µg/mL | 12.5 µg/mL | 50 µg/mL | 50 µg/mL | 12.5 µg/mL | 50 µg/mL | 12.5 µg/mL | 50 µg/mL | 50 µg/mL |  |  |  |  |  |  |  |  |  |  | MIC S. marcescens (Serratia marcescens; [1]): 12.5 µg/mL
PRT1281 (DLCLSSPCQNQGTCHNDPLEVYRCACPSGYKGRDCE; listed as Homo sapiens) | 50 µg/mL |  |  |  |  |  |  |  |  |  | 12.5 µg/mL | 12.5 µg/mL | 50 µg/mL | 25 µg/mL | 50 µg/mL | 50 µg/mL | 12.5 µg/mL | 25 µg/mL | 12.5 µg/mL | 50 µg/mL | 
PRT1298 (PINTCIQNPCQHGGTCHLSDSHKDGFSCSCPLGFEGQRCE; listed as Homo sapiens) | 12.5 µg/mL |  |  |  |  |  |  |  |  |  | 12.5 µg/mL | 12.5 µg/mL | 50 µg/mL | 25 µg/mL | 50 µg/mL | 50 µg/mL | 50 µg/mL | 12.5 µg/mL | 12.5 µg/mL | 25 µg/mL | 
PRT1307 (HECPGGAETPCNGHGTCLDGMDRNGTCVCQENFRGSACQ; listed as Homo sapiens) | 12.5 µg/mL |  |  |  |  |  |  |  |  |  | 50 µg/mL | 50 µg/mL | 25 µg/mL | 100 µg/mL | 50 µg/mL | 12.5 µg/mL | 50 µg/mL | 12.5 µg/mL | 12.5 µg/mL | 25 µg/mL | 
PRT103 (CSSYGKLCRNGGKCRERPIGFFCDCTFSAYTGPFC; listed as Homo sapiens) | 50 µg/mL |  |  |  |  |  |  |  |  |  |  |  |  |  |  |  |  |  |  |  | MIC (μg/mL) M. catarrhalis (Moraxella catarrhalis; [2]): 12.5 µg/mL; MIC (μg/mL) A. hydrophila (Aeromonas hydrophila; [3]): 12.5 µg/mL; MIC (μg/mL) P. mirabilis (Proteus mirabilis; [4]): 25 µg/mL; MIC (μg/mL) E. cloacae (Enterobacter cloacae; [5]): 12.5 µg/mL; MIC (μg/mL) K. pneumonia (Klebsiella pneumonia; [6]): 12.5 µg/mL; MIC (μg/mL) C. diversus (Citrobacter diversus; [7]): 12.5 µg/mL; MIC (μg/mL) E. coli BL21 (E. coli BL21; [8]): 12.5 µg/mL; MIC (μg/mL) P. aeruginosa (Pseudomonas aeruginosa; [9]): 50 µg/mL; MIC (μg/mL) P. vulgaris (Proteus vulgaris; [10]): 12.5 µg/mL; MIC (μg/mL) S. marcescens (Serratia marcescens; [11]): 25 µg/mL
PRT1183 (NIDDCLGQPCRNGGTCIDEVDAFRCFCPSGWEGELCD; listed as Homo sapiens) | 25 µg/mL | 25 µg/mL | 25 µg/mL | 50 µg/mL | 50 µg/mL | 12.5 µg/mL | 12.5 µg/mL | 50 µg/mL | 25 µg/mL | 25 µg/mL |  |  |  |  |  |  |  |  |  |  | MIC S. marcescens (Serratia marcescens; [1]): 12.5 µg/mL
PRT1197 (DIDECAAKMHYCHANTVCVNLPGLYRCDCVPGYIRVDDFSCT; listed as Homo sapiens) | 25 µg/mL |  |  |  |  |  |  |  |  |  | 12.5 µg/mL | 50 µg/mL | 25 µg/mL | 12.5 µg/mL | 50 µg/mL | 25 µg/mL | 12.5 µg/mL | 25 µg/mL | 50 µg/mL | 25 µg/mL | 
PRT1169 (RDSQCDEATCNNGGTCYDEGDAFKCMCPGGWEGTTCN; listed as Homo sapiens) | 50 µg/mL | 12.5 µg/mL | 12.5 µg/mL | 12.5 µg/mL | 12.5 µg/mL | 25 µg/mL | 50 µg/mL | 25 µg/mL | 50 µg/mL | 12.5 µg/mL |  |  |  |  |  |  |  |  |  |  | MIC S. marcescens (Serratia marcescens; [1]): 12.5 µg/mL
PRT1336 (DCNQCPGGFSNPCSGNGQCADSLGGNGTCICEEGFQGSQCQ; listed as Homo sapiens) | 12.5 µg/mL |  |  |  |  |  |  |  |  |  | 12.5 µg/mL | 12.5 µg/mL | 50 µg/mL | 25 µg/mL | 50 µg/mL | 50 µg/mL | 50 µg/mL | 12.5 µg/mL | 12.5 µg/mL | 50 µg/mL | 
